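96-well plates; 48 h exposure; 5 concentrations. Endpoints by linear interpolation between flanking doses. Not reached: highest tested concentration assigned. Here, GI50 denotes the concentration required for 50% inhibition of growth.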 Active and inactive are the calls of the source. Cut-off read from the data, not from the text of the source: active = GI50 up to about 1.1 µM and inactive = higher.
What was measured:
Test in all cases: growth of human tumour cells (NCI), 48 h
786-0 = system: 786-0
A498 = system: A498
A549 = system: A549
HCT-15 = system: HCT-15
HOP-62 = system: HOP-62
HT-29 = system: HT-29
KM12 = system: KM12
LOX IMVI = system: LOX IMVI
MCF7 = system: MCF7
MDA-MB-231 = system: MDA-MB-231
MOLT-4 = system: MOLT-4
Malme-3M = system: Malme-3M
NCI-H226 = system: NCI-H226
NCI-H460 = system: NCI-H460
NCI-H522 = system: NCI-H522
OVCAR-4 = system: OVCAR-4
SK-MEL-28 = system: SK-MEL-28
UACC-257 = system: UACC-257
RXF 393 = system: RXF 393
SK-MEL-2 = system: SK-MEL-2

Row | Compound | GI50 (786-0) | GI50 (A498) | GI50 (A549) | GI50 (HCT-15) [µM] | GI50 (HOP-62) | GI50 (HT-29) | GI50 (KM12) | GI50 (LOX IMVI) | GI50 (MCF7) | GI50 (MDA-MB-231) | GI50 (MOLT-4) | GI50 (Malme-3M) | GI50 (NCI-H226) | GI50 (NCI-H460) | GI50 (NCI-H522) | GI50 (OVCAR-4) | GI50 (SK-MEL-28) | GI50 (UACC-257) | GI50 (RXF 393) | GI50 (SK-MEL-2)
1 | CN(C(=O)Cc1ccccc1)n1cn[n+](CC(=O)OC(C)(C)C)c1 | > 10 µM (inactive) | > 10 µM (inactive) | > 10 µM (inactive) | > 10 | > 10 µM (inactive) | > 10 µM (inactive) | > 10 µM (inactive) | > 10 µM (inactive) | > 10 µM (inactive) | > 10 µM (inactive) | > 10 µM (inactive) | > 10 µM (inactive) | > 10 µM (inactive) | > 10 µM (inactive) | > 10 µM (inactive) | > 10 µM (inactive) | > 10 µM (inactive) | > 10 µM (inactive) | – | –
2 | N#CCc1nc(-c2ccccc2)n[nH]1 | > 100 µM (inactive) | – | > 100 µM (inactive) | > 100 | > 100 µM (inactive) | > 100 µM (inactive) | > 100 µM (inactive) | > 100 µM (inactive) | > 100 µM (inactive) | > 100 µM (inactive) | > 100 µM (inactive) | > 100 µM (inactive) | – | > 100 µM (inactive) | > 100 µM (inactive) | > 100 µM (inactive) | – | > 100 µM (inactive) | > 100 µM (inactive) | > 100 µM (inactive)
3 | CN1C2CCC1C(C(O)c1ccccc1[N+](=O)[O-])C(=O)C2 (centres undefined) | 44 µM (inactive) | > 100 µM (inactive) | > 100 µM (inactive) | 19.5 | 45.3 µM (inactive) | 32.4 µM (inactive) | 36.5 µM (inactive) | 41.7 µM (inactive) | 39.1 µM (inactive) | 64 µM (inactive) | 47.4 µM (inactive) | > 100 µM (inactive) | 24.2 µM (inactive) | > 100 µM (inactive) | 40.3 µM (inactive) | 77.3 µM (inactive) | > 100 µM (inactive) | > 100 µM (inactive) | – | > 100 µM (inactive)
4 | COC(=O)C(C(=O)C(=O)Nc1ccc(C)cc1C)c1nc2ccc([N+](=O)[O-])cc2nc1O (centres undefined) | > 100 µM (inactive) | > 100 µM (inactive) | > 100 µM (inactive) | > 100 | > 100 µM (inactive) | > 100 µM (inactive) | > 100 µM (inactive) | > 100 µM (inactive) | – | – | > 100 µM (inactive) | > 100 µM (inactive) | > 100 µM (inactive) | > 100 µM (inactive) | 60.3 µM (inactive) | > 100 µM (inactive) | > 100 µM (inactive) | > 100 µM (inactive) | > 100 µM (inactive) | > 100 µM (inactive)
5 | N#C/C(N)=C(C#N)/N=C/Nc1ccc(N)cc1 | > 100 µM (inactive) | > 100 µM (inactive) | > 100 µM (inactive) | > 100 | > 100 µM (inactive) | > 100 µM (inactive) | > 100 µM (inactive) | > 100 µM (inactive) | 96.6 µM (inactive) | > 100 µM (inactive) | > 100 µM (inactive) | > 100 µM (inactive) | > 100 µM (inactive) | > 100 µM (inactive) | > 100 µM (inactive) | > 100 µM (inactive) | > 100 µM (inactive) | > 100 µM (inactive) | – | > 100 µM (inactive)
6 | O=c1c2c(oc3ccccc13)-c1ccccc1OC2 | 24.4 µM (inactive) | – | 96.6 µM (inactive) | > 100 | 88.9 µM (inactive) | > 100 µM (inactive) | > 100 µM (inactive) | 46 µM (inactive) | > 100 µM (inactive) | 21.1 µM (inactive) | > 100 µM (inactive) | > 100 µM (inactive) | > 100 µM (inactive) | – | > 100 µM (inactive) | – | – | > 100 µM (inactive) | – | > 100 µM (inactive)
7 | c1ccc2c(c1)nnn2CNc1ccc(N2CCCCC2)cc1 | > 100 µM (inactive) | > 100 µM (inactive) | > 100 µM (inactive) | > 100 | > 100 µM (inactive) | > 100 µM (inactive) | > 100 µM (inactive) | > 100 µM (inactive) | – | – | > 100 µM (inactive) | > 100 µM (inactive) | > 100 µM (inactive) | > 100 µM (inactive) | > 100 µM (inactive) | > 100 µM (inactive) | > 100 µM (inactive) | > 100 µM (inactive) | > 100 µM (inactive) | > 100 µM (inactive)
8 | C/C(=N\NC(=S)Nc1ccccc1)c1nc2cccnc2[nH]1 | 2.54 µM (inactive) | 8.17 µM (inactive) | 3.31 µM (inactive) | 2.66 | 8.47 µM (inactive) | 0.826 µM (active) | 7.08 µM (inactive) | 2.31 µM (inactive) | 0.338 µM (active) | 1.06 µM (active) | 0.706 µM (active) | 2.18 µM (inactive) | 2.59 µM (inactive) | 1.54 µM (inactive) | 2.18 µM (inactive) | 0.927 µM (active) | 0.706 µM (active) | 2.18 µM (inactive) | – | 16.9 µM (inactive)
9 | CC(=O)OCCn1cnc2nc(Nc3ccccc3)nc(Cl)c21 | > 100 µM (inactive) | > 100 µM (inactive) | > 100 µM (inactive) | 45.4 | > 100 µM (inactive) | > 100 µM (inactive) | 29.2 µM (inactive) | 44.4 µM (inactive) | 46.8 µM (inactive) | 38.1 µM (inactive) | 54.2 µM (inactive) | > 100 µM (inactive) | > 100 µM (inactive) | 51.9 µM (inactive) | 84.9 µM (inactive) | 43.3 µM (inactive) | > 100 µM (inactive) | 76.9 µM (inactive) | – | –
10 | N#Cc1c(N2CCN(c3ccc([N+](=O)[O-])cc3)CC2)[n+]([O-])c2ccc(-c3ccc([N+](=O)[O-])cc3)cc2[n+]1[O-] | > 47.8 µM (inactive) | > 100 µM (inactive) | 2.49 µM (inactive) | > 85.5 | 1.82 µM (inactive) | > 67.6 µM (inactive) | > 83.6 µM (inactive) | 0.9 µM (active) | > 100 µM (inactive) | 22.5 µM (inactive) | – | > 42 µM (inactive) | 33 µM (inactive) | 2.5 µM (inactive) | – | > 31.2 µM (inactive) | > 89.3 µM (inactive) | 16.4 µM (inactive) | – | > 37.2 µM (inactive)
11 | CC1(C)C(=O)C(C)(C)C12SSC1(S2)C(C)(C)C(=O)C1(C)C | > 100 µM (inactive) | > 100 µM (inactive) | 64.9 µM (inactive) | > 100 | > 100 µM (inactive) | > 100 µM (inactive) | > 100 µM (inactive) | > 100 µM (inactive) | > 100 µM (inactive) | > 100 µM (inactive) | 71.4 µM (inactive) | 48.2 µM (inactive) | 42.6 µM (inactive) | > 100 µM (inactive) | – | > 100 µM (inactive) | > 100 µM (inactive) | > 100 µM (inactive) | – | > 100 µM (inactive)
12 | Cc1ccc(S(=O)(=O)N(CC(O)c2ccccc2)c2ccccc2F)cc1 (centres undefined) | 17.6 µM (inactive) | 19.9 µM (inactive) | 19.5 µM (inactive) | 17.7 | 16.8 µM (inactive) | 19.3 µM (inactive) | 16.8 µM (inactive) | 16.1 µM (inactive) | 13 µM (inactive) | 18.2 µM (inactive) | – | 16.4 µM (inactive) | 20.7 µM (inactive) | 17.4 µM (inactive) | 17.3 µM (inactive) | 13.5 µM (inactive) | 18 µM (inactive) | 4.65 µM (inactive) | – | 17.9 µM (inactive)
13 | CC1C(c2cc(C(C)(C)C)c(O)c(C(C)(C)C)c2)c2cc3c(cc2OC1N1CCOCC1)OCO3 (centres undefined) | 13.7 µM (inactive) | – | 16.6 µM (inactive) | > 10 | 16.9 µM (inactive) | 19.2 µM (inactive) | 43.9 µM (inactive) | 20.3 µM (inactive) | 21.2 µM (inactive) | – | > 100 µM (inactive) | – | – | 21.6 µM (inactive) | 21.2 µM (inactive) | – | 15.6 µM (inactive) | 34.6 µM (inactive) | – | 23.7 µM (inactive)
14 | COc1cccc(/C=N/C(/N=C/c2cccc(OC)c2O)c2cccc(OC)c2O)c1O | 23.3 µM (inactive) | – | 26.7 µM (inactive) | 7.5 | 29.4 µM (inactive) | 24.4 µM (inactive) | 22.6 µM (inactive) | 10.5 µM (inactive) | 18.9 µM (inactive) | 25.1 µM (inactive) | – | – | – | 21.7 µM (inactive) | 21.8 µM (inactive) | – | 18.7 µM (inactive) | 23.1 µM (inactive) | 8.39 µM (inactive) | 14.8 µM (inactive)
15 | CCCOc1ccc(/C=C/c2cc(OC)c(OC)c(OC)c2)cc1 | 0.481 µM (active) | 1.08 µM (active) | 0.452 µM (active) | 0.348 | 0.265 µM (active) | 0.272 µM (active) | 0.305 µM (active) | 0.445 µM (active) | – | – | 0.443 µM (active) | 0.21 µM (active) | 0.373 µM (active) | 0.439 µM (active) | 0.175 µM (active) | 0.971 µM (active) | 8.75 µM (inactive) | 0.348 µM (active) | 0.254 µM (active) | 0.822 µM (active)
16 | COc1cc([C@@H]2c3cc4c(cc3[C@@H](Nc3ccc(NC(=O)c5cc(NC(=O)c6cc([N+](=O)[O-])cn6C)cn5C)cc3)[C@H]3COC(=O)[C@H]23)OCO4)cc(OC)c1O | 0.593 µM (active) | 1.35 µM (inactive) | 0.239 µM (active) | 5.73 | 0.361 µM (active) | 0.355 µM (active) | 12.5 µM (inactive) | 0.274 µM (active) | 0.047 µM (active) | > 38.8 µM (inactive) | < 0.0209 µM (active) | 4.35 µM (inactive) | 0.334 µM (active) | 0.0303 µM (active) | 0.261 µM (active) | > 43.7 µM (inactive) | – | 0.687 µM (active) | – | > 100 µM (inactive)

Source: ChEMBL document CHEMBL1201862, “PubChem BioAssay data set” (2004)
